# Test results: article PMC11208559 (Scientific Reports, 2024)
# Structures can show the parent of a compound that is named as a salt.
# Tests used:
# CD-1 mice [1] = assay: 52 °C tail-flick assay, morphine anti-nociception after Hsp90 inhibitor treatment; format: in vivo; conditions: for A50 (morphine anti-nociceptive potency), tail flick: 24 h
# Description: (§1) Pre-injection tail-flick baselines were determined in a 52 °C tail-flick assay with a 10-s cutoff time (method also reported in Ref.[13]). […] No animals were excluded from these studies.
# CD-1 mice [2] = assay: Conditioned place preference (morphine reward); conditions: Vehicle i.t. over 4 days with 3.2–10 mg/kg morphine s.c.; 95% CI in parentheses
# Description: Rigs were designed to consist of two chambers with one connecting chamber. Of the two conditioned chambers, one consisted of black and grey dotted walls with a textured floor. The other chamber consisted of black and grey striped walls with smooth floor. Chamber floors connected to a pressure sensor which transferred ongoing data to a computer running PPC WIN 2.0 software (Harvard Apparatus). Prior to preference training baselines were taken on day 0. […] Chambers were cleaned thoroughly with VersaClean and allowed to dry in-between mice. […] Half of each group paired morphine with the striped chamber and the other half to the dotted chamber in an unbiased design. At ~ 12 pm mice were then given a second injection of either saline or morphine which was paired to the opposite chamber. […] Raw data in the form of seconds and percentage spent in each chamber was exported from PPC WIN 2.0 as an excel file and transferred to GraphPad Prism 9.3 (San Diego, CA) for further analysis.
# All data were reported as the mean ± SEM and normalized where appropriate as described above. The behavioral data from each individual dose were reported raw without maximum possible effect (MPE) or other normalization. Data for dose/response curves (except CPP) were normalized to %MPE using peak effect, except for constipation, which used Area Under the Curve [MPE = (Response-Baseline)/(Threshold – Baseline) * 100]. […]
# CD-1 mice [3] = assay: HIV peripheral neuropathy (gp120), mechanical threshold, morphine anti-nociception; format: in vivo; conditions: for A50 (morphine anti-nociceptive potency), HIV neuropathy: %MPE, 95% CI in parentheses
# Description: Mechanical threshold baselines were measured prior to any treatment on the left hind paw using von Frey filaments. HIV peripheral neuropathy was induced by intrathecal injection of gp120 IIIb protein (SPEED BioSystems, Gaithersburg, MD, Cat# YCP1549, 15 ng/μl in 0.1 M PBS and 0.1% BSA, 7-μl volume) using our previously established protocol[13] on days 1, 3, and 5. On day 20 a second mechanical threshold baseline was measured on the left hind paw using von Frey filaments and then KU-32 or Vehicle was injected i.t with a 24-h treatment time. […] . No animals were excluded from these studies.
# CD-1 mice [4] = assay: Post-surgical paw incision, mechanical allodynia (von Frey), morphine anti-nociception; format: in vivo
# Description: Mechanical thresholds were determined prior to surgery using calibrated von Frey filaments (Ugo Basile, Varese, Italy) with the up-down method and four measurements after the first response per mouse as in Ref.[27] and our previously published work (e.g. Ref.[28]). The mice were housed in a homemade apparatus with Plexiglas walls and ceiling and a wire mesh floor (3-inch wide 4-inch long 3-inch high with 0.25-inch wire mesh). The surgery was then performed by anesthesia with ~ 2% isoflurane in standard air, preparation of the left plantar hind paw with iodine and 70% ethanol, and a 5-mm incision made through the skin and fascia with a no. 11 scalpel. The muscle was elevated with curved forceps leaving the origin and insertion intact, and the muscle was split lengthwise using the scalpel. The wound was then closed with 5–0 polyglycolic acid sutures. Mice were then injected with inhibitor or Vehicle control and left to recover for 24 h. Our intrathecal (i.t.) injection protocol is reported in Refs.[13],[29]; briefly, the injection was made in awake and restrained animals with a 10 μL Hamilton syringe and 30 g needle (5–7 μL volume) between the L5-L6 vertebrae at a 45° angle, with placement validated by tail twitch. Since the injection was made through skin with no incision or other surgical intervention, repeated injection protocols were performed the same way. The next day, the mechanical threshold was again determined as described above. […] . No animals were excluded from these studies.
# CD-1 mice [5] = assay: Morphine anti-nociceptive tolerance and tolerance rescue (tail flick); format: in vivo; conditions: for A50 of morphine, Day 1 of tolerance regimen / A50 of morphine, Day 4 of tolerance regimen: twice daily 1–10 mg/kg morphine s.c., tail flick, 95% CI in parentheses
# Description: as §1
# CD-1 mice [6] = assay: Opioid induced constipation (fecal production over 6 h)
# Description: The feces were counted and weighed in 1-h bins and used to construct a cumulative plot. Morphine-treated groups were normalized to saline groups and represented as a percentage at each timepoint.
# All data were reported as the mean ± SEM and normalized where appropriate as described above. The behavioral data from each individual dose were reported raw without maximum possible effect (MPE) or other normalization. Data for dose/response curves (except CPP) were normalized to %MPE using peak effect, except for constipation, which used Area Under the Curve [MPE = (Response-Baseline)/(Threshold – Baseline) * 100]. […] Technical replicates and further details are described in the Figure Legends. […] Statistical comparisons of individual dose/response curve time courses were performed using Repeated Measures 2-Way ANOVA with Sidak’s (tail flick, paw incision, HIV neuropathy, tolerance rescue, constipation, respiratory depression) or Tukey’s (tolerance, CPP) post hoc tests. The Geisser-Greenhouse correction was used to account for a potential lack of sphericity of the data, permitting valid Repeated Measures ANOVA. ANOVA post hoc tests were only performed when ANOVA F values indicated a significant difference, and there was homogeneity of variance (permitting parametric analysis). In all cases, significance was defined as p < 0.05. The group sizes reported represent independent individual mice tested in each assay. All graphing and statistical analyses were performed using GraphPad Prism 9.3.
# [7] = 0.01 nmol KU-32 i.t. vs Vehicle
smiles,measurement,setting,value
"CN1CC[C@]23c4c5ccc(O)c4O[C@H]2[C@@H](O)C=C[C@H]3[C@H]1C5 [morphine, Morphine sulfate pentahydrate, reference compound]","A50 (morphine anti-nociceptive potency), tail flick","CD-1 mice [1]; Vehicle i.t., then 1–10 mg/kg morphine s.c., %MPE, 95% CI in parentheses",3.0 (2.5–3.7) mg/kg
same,"A50 (morphine anti-nociceptive potency), tail flick","CD-1 mice [1]; Vehicle i.v. (control of KUNB106 experiment, Fig. 9E), then 1–5.6 mg/kg morphine s.c.",5.6 (4.4–∞) mg/kg
same,"A50 (morphine anti-nociceptive potency), tail flick","CD-1 mice [1]; Vehicle i.v. (control of KUNG65 experiment, Fig. 8F), then 1–5.6 mg/kg morphine s.c.",3.6 (2.9–4.6) mg/kg
same,"A50 (morphine reward potency, CPP % Difference Score)",CD-1 mice [2],5.1 (2.7–7.7) mg/kg
same,"A50 (morphine anti-nociceptive potency), HIV neuropathy","CD-1 mice [3]; Vehicle i.t. on day 20, 24 h, then morphine s.c.",4.2 (3.7–4.8) mg/kg
same,"A50 (morphine anti-nociceptive potency), paw incision","CD-1 mice [4]; Vehicle i.t., 24 h, then morphine s.c., %MPE, 95% CI in parentheses",2.4 (2.0–2.8) mg/kg
same,"A50 (morphine anti-nociceptive potency), paw incision","CD-1 mice [4]; Vehicle i.v. (control of KUNB106 experiment, Fig. S7B), then 1–3.2 mg/kg morphine s.c.",2.5 (2.0–∞) mg/kg
same,"A50 (morphine anti-nociceptive potency), paw incision","CD-1 mice [4]; Vehicle i.v. (control of KUNG65 experiment, Fig. S6B), then 1–3.2 mg/kg morphine s.c.",2.0 (1.4–3.0) mg/kg
same,"A50 of morphine, Day 1 of tolerance regimen",CD-1 mice [5]; daily Vehicle i.t.,5.2 (3.9–7.5) mg/kg
same,"A50 of morphine, Day 4 of tolerance regimen",CD-1 mice [5]; daily Vehicle i.t.,110 (30–6300) mg/kg
same,constipation compared to saline-injected controls,CD-1 mice [6]; 1 mg/kg morphine s.c.,~ 40%
same,constipation compared to saline-injected controls (plateau),CD-1 mice [6]; 3.2–10 mg/kg morphine s.c.,~ 70%
same,A50 (morphine constipation potency),"CD-1 mice [6]; Vehicle i.t., 24 h, then morphine s.c., 6-h AUC, %MPE, 95% CI in parentheses",0.67 (0.32–0.94) mg/kg
CO[C@@H]1[C@@H](O)[C@@H](O)[C@H](Oc2ccc3cc(NC(C)=O)c(=O)oc3c2C)OC1(C)C [KU-32],"fold increase in morphine potency, tail flick",CD-1 mice [1]; [7],1.9 fold
same,"A50 (morphine anti-nociceptive potency), tail flick","CD-1 mice [1]; 0.01 nmol KU-32 i.t., then 1–10 mg/kg morphine s.c., %MPE, 95% CI in parentheses",1.6 (1.3–2.0) mg/kg
same,"A50 (morphine anti-nociceptive potency), HIV neuropathy","CD-1 mice [3]; 0.01 nmol KU-32 i.t. on day 20, 24 h, then 0.32–10 mg/kg morphine s.c.",1.2 (0.87–1.5) mg/kg
same,"fold increase in morphine potency, HIV neuropathy",CD-1 mice [3]; [7],3.5 fold
same,"fold increase in morphine potency, paw incision",CD-1 mice [4]; [7],2.8 fold
same,"A50 (morphine anti-nociceptive potency), paw incision","CD-1 mice [4]; 0.01 nmol KU-32 i.t., 24 h, then 0.32–5.6 mg/kg morphine s.c., %MPE, 95% CI in parentheses",0.85 (0.64–1.1) mg/kg
same,baseline nociception (tail flick baseline responses),"CD-1 mice [5]; 0.01 nmol i.t. daily, 7-day regimen",not altering baseline nociception
same,rescue of established morphine tolerance,"CD-1 mice [5]; 3 days twice daily 10 mg/kg morphine s.c., 0.01 nmol i.t. on day 3, 24 h, 10 mg/kg morphine on day 4","full anti-nociceptive response to morphine, comparable to their day 1 response"
same,"A50 of morphine, Day 1 of tolerance regimen",CD-1 mice [5]; daily 0.01 nmol KU-32 i.t.,1.9 (1.3–2.5) mg/kg
same,"A50 of morphine, Day 4 of tolerance regimen",CD-1 mice [5]; daily 0.01 nmol KU-32 i.t.,5.5 (3.5–12) mg/kg
